From PubChem BioAssay AID1919007 (Molecular Pharmacology Branch, DTP, NCI, 2023)

System: A498 complex spheroids with HUVEC/MSC, growth
Test: Anticancer human tumor A498 cell line growth inhibition [AhR];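 further: seven day exposure starting three days after spheroid seeding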;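 on viability, T/C: luminescence signal used as a surrogate for viable cells; luminescence viability scaled so 100% equals DMSO vehicle wells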
Conditions: for IC50: curve of first compound; for viability, T/C: stronger effect = lower value
Text: Multicellular complex tumor spheroid response to aryl hydrocarbon receptor antagonists in combination with a variety of drugs and investigational agents in selected tumor cell lines
The current study was undertaken to assess response to aryl hydrocarbon receptor antagonists in combination with standard-of-care drugs and investigational agents in solid tumor complex spheroid models. Complex spheroids include a stromal component modeled by human endothelial cells (HUVEC) and fibroblasts modeled by human mesenchymal stem cells (MSCs). The concentration ranges selected for each drug and investigational agent were based upon clinically achievable concentrations if the clinical Cmax of the agent was known.
Compounds. The drugs and investigational agents: BAY 2416964 (NSC825713), GNF351 (NSC835774), CH-223191 (NSC835775), CPI-455 (NSC825282), aza-TdCyd (NSC777586), decitabine (NSC127716), belinostat (NSC758774), entinostat (NSC756642), pevonedistat (NSC761192), tazemetostat (NSC777109), talazoparib (NSC765396), olaparib (NSC753686), selinexor (NSC780203), nedisertib (M3814, NSC802822), bortezomib (NSC756655), venetoclax (NSC766270), doxorubicin (NSC123127), elimusertib (BAY189344, NSC800525), ceralasertib (AZD6738, NSC777638), TAK-243 (NSC785004), alisertib (NSC759677), etoposide (NSC141540), topotecan (NSC609699), eribulin (NSC707389), gemcitabine (NSC613327), carboplatin (NSC241240), cisplatin (NSC119875), and SN-38 (NSC673596) were obtained from the National Cancer Institute (NCI) Developmental Therapeutics Program Chemical Repository (32). The FDA-approved anticancer drug set is available from the Developmental Therapeutics Program at https://dtp.cancer.gov/organization/dscb/obtaining/available plates.htm. […] The stock solutions were prepared in dimethyl sulfoxide (DMSO, Sigma-Aldrich, St. Louis, MO, cat. D2650), except for the platinum compounds which were prepared in saline (Quality Biological, Gaithersburg, MD, cat. 114-055-101), at 800-fold the tested concentration and stored at -70 degrees C prior to their use. All drugs and investigational agents were tested over a range starting from a high concentration at or near the clinical Cmax and decreasing in half-log increments. If the clinical Cmax for an agent had not been determined, the highest concentration tested was 10 microM (Table 1).
Cell Culture. All cells were maintained in an incubator at 37 degrees C and 5% CO2 with 95% humidity. The PDC lines were cultured according to standard operating procedures established by the NCI PDMR (https://pdmr.cancer.gov). Briefly, all PDCs were thawed and cultured in Matrigel-coated flasks prepared with a working solution of 1X Ham's F-12 nutrient mix, without supplementation (Invitrogen, Waltham, MA, cat. 11765054), 100 U/mL penicillin-streptomycin (Invitrogen, cat. 15140122), and 2.5% Matrigel (Corning Inc., Corning, NY, cat. 354248) for the first three passages. All PDCs were cultured in complete DMEM/F-12 media containing advanced DMEM/F-12 (Invitrogen, cat. 12634028), 4.9% defined fetal bovine serum, heat inactivated (HyClone Laboratories Inc., Logan, UT, cat. SH30070.03HI), 389 ng/mL hydrocortisone (Sigma-Aldrich, cat. H4001), 9.7 ng/mL human EGF recombinant protein (Invitrogen, cat. PHG0313), 23.4 microg/mL adenine (Sigma-Aldrich, cat. A2786), 97.3 U/mL penicillin-streptomycin (Invitrogen, cat. 15140122), 1.9 mM L-glutamine (Invitrogen, cat. 25030081), and 9.7 microM Y-27632 dihydrochloride (Tocris Bioscience, Bristol, United Kingdom, cat. 1254). The PDCs were cultured in complete DMEM/F12 media without 10 microM Y-27632 dihydrochloride for at least two passages prior to the screen. The established cell lines NCI-H1341 and […] were cultured in DMEM/F-12, HEPES (Invitrogen, cat. 11330032), 5% defined fetal bovine serum (HyClone Laboratories Inc., cat. SH30070.03), ITS premix universal culture supplement [insulin (5 microg/mL), transferrin (5 microg/mL), and selenious acid (5 ng/mL)] […]

[1] = second compound 0.1 µM, first compound 0.00316 µM
[2] = second compound 0.1 µM, first compound 0.01 µM
[3] = second compound 0.1 µM, first compound 0.0316 µM
[4] = second compound 0.1 µM, first compound 0.1 µM
[5] = second compound 0.316 µM, first compound 0.00316 µM
[6] = second compound 0.316 µM, first compound 0.01 µM
[7] = second compound 0.316 µM, first compound 0.0316 µM
[8] = second compound 0.316 µM, first compound 0.1 µM
[9] = second compound 1 µM, first compound 0.00316 µM
[10] = second compound 1 µM, first compound 0.01 µM
[11] = second compound 1 µM, first compound 0.0316 µM
[12] = second compound 1 µM, first compound 0.1 µM
[13] = second compound 3.16 µM, first compound 0.00316 µM
[14] = second compound 3.16 µM, first compound 0.01 µM
[15] = second compound 3.16 µM, first compound 0.0316 µM
[16] = second compound 3.16 µM, first compound 0.1 µM
[17] = second compound 10 µM, first compound 0.00316 µM
[18] = second compound 10 µM, first compound 0.01 µM
[19] = second compound 10 µM, first compound 0.0316 µM
[20] = second compound 10 µM, first compound 0.1 µM
[21] = second compound 0.1 µM, first compound 0.316 µM
[22] = second compound 0.1 µM, first compound 1 µM
[23] = second compound 0.316 µM, first compound 0.316 µM
[24] = second compound 0.316 µM, first compound 1 µM
[25] = second compound 1 µM, first compound 0.316 µM
[26] = second compound 1 µM, first compound 1 µM
[27] = second compound 3.16 µM, first compound 0.316 µM
[28] = second compound 3.16 µM, first compound 1 µM
[29] = second compound 10 µM, first compound 0.316 µM
[30] = second compound 10 µM, first compound 1 µM

Compound `CC[C@@]1(O)C(=O)OCc2c1cc1n(c2=O)Cc2cc3c(CN(C)C)c(O)ccc3nc2-1` + CC(CO)NC(=O)c1cc(-c2ccc(Cl)cc2)nn(-c2cnn(C)c2)c1=O has an IC50 (second compound 0.1 µM) greater than 100 nM, an IC50 (second compound 0.316 µM) greater than 100 nM and an IC50 (second compound 1 µM) greater than 100 nM. For the same compound, the IC50 (second compound 3.16 µM) was greater than 100 nM, the IC50 (second compound 10 µM) was 75.7 nM and the viability, T/C (second compound 0.1 µM, first compound 0.000316 µM) was 105%. It also gave a viability, T/C (second compound 0.1 µM, first compound 0.001 µM) of 98.4%, a viability, T/C [1] of 103% and a viability, T/C [2] of 94.6%. It also gave a viability, T/C [3] of 86.7%, a viability, T/C [4] of 68.2% and a viability, T/C (second compound 0.316 µM, first compound 0.000316 µM) of 93.2%. The viability, T/C (second compound 0.316 µM, first compound 0.001 µM) was 102%, the viability, T/C [5] was 96.4% and the viability, T/C [6] was 82.4%. For the same compound, the viability, T/C [7] was 81.3%, the viability, T/C [8] was 64.8% and the viability, T/C (second compound 1 µM, first compound 0.000316 µM) was 95.8%. It also gave a viability, T/C (second compound 1 µM, first compound 0.001 µM) of 106%, a viability, T/C [9] of 100% and a viability, T/C [10] of 92.2%. The viability, T/C [11] was 76.9%, the viability, T/C [12] was 65.3% and the viability, T/C (second compound 3.16 µM, first compound 0.000316 µM) was 92%. For the same compound, the viability, T/C (second compound 3.16 µM, first compound 0.001 µM) was 87%, the viability, T/C [13] was 88.6% and the viability, T/C [14] was 71.1%. It also gave a viability, T/C [15] of 71.2%, a viability, T/C [16] of 60.1% and a viability, T/C (second compound 10 µM, first compound 0.000316 µM) of 77%. For the same compound, the viability, T/C (second compound 10 µM, first compound 0.001 µM) was 74.2%, the viability, T/C [17] was 76.6% and the viability, T/C [18] was 63.1%. The viability, T/C [19] was 57.1% and the viability, T/C [20] was 47.7%.

In the case of `COc1cc(C2c3cc4c(cc3C(OC3OC5COC(C)OC5C(O)C3O)C3COC(=O)C23)OCO4)cc(OC)c1O` (stereo not given) + CC(CO)NC(=O)c1cc(-c2ccc(Cl)cc2)nn(-c2cnn(C)c2)c1=O, the IC50 (second compound 0.1 µM) is reported as 2970 nM, the IC50 (second compound 0.316 µM) is reported as 2080 nM and the IC50 (second compound 1 µM) is reported as 1560 nM. The IC50 (second compound 3.16 µM) was 1080 nM, the IC50 (second compound 10 µM) was 400 nM and the viability, T/C [3] was 74.1%. The viability, T/C [4] was 81.2%, the viability, T/C [21] was 69.4% and the viability, T/C [22] was 57.7%. For the same compound, the viability, T/C (second compound 0.1 µM, first compound 3.16 µM) was 52.5%, the viability, T/C (second compound 0.1 µM, first compound 10 µM) was 42.2% and the viability, T/C [7] was 74.2%. It also gave a viability, T/C [8] of 73.1%, a viability, T/C [23] of 68% and a viability, T/C [24] of 52.9%. It also gave a viability, T/C (second compound 0.316 µM, first compound 3.16 µM) of 49.8%, a viability, T/C (second compound 0.316 µM, first compound 10 µM) of 40.1% and a viability, T/C [11] of 66.7%. For the same compound, the viability, T/C [12] was 77%, the viability, T/C [25] was 71.3% and the viability, T/C [26] was 53.3%. The viability, T/C (second compound 1 µM, first compound 3.16 µM) was 47.3%, the viability, T/C (second compound 1 µM, first compound 10 µM) was 40.3% and the viability, T/C [15] was 64.4%. The viability, T/C [16] was 66.7%, the viability, T/C [27] was 64.5% and the viability, T/C [28] was 50.2%. It also gave a viability, T/C (second compound 3.16 µM, first compound 3.16 µM) of 41.9%, a viability, T/C (second compound 3.16 µM, first compound 10 µM) of 38.2% and a viability, T/C [19] of 49.3%. For the same compound, the viability, T/C [20] was 57.7%, the viability, T/C [29] was 53.3% and the viability, T/C [30] was 37.9%. It also gave a viability, T/C (second compound 10 µM, first compound 3.16 µM) of 37.3% and a viability, T/C (second compound 10 µM, first compound 10 µM) of 30.7%.

Work on `Nc1ncn(C2CC(O)C(CO)O2)c(=O)n1` (stereo not given) + CC(CO)NC(=O)c1cc(-c2ccc(Cl)cc2)nn(-c2cnn(C)c2)c1=O yielded an IC50 (second compound 0.1 µM) greater than 1000 nM, an IC50 (second compound 0.316 µM) greater than 1000 nM and an IC50 (second compound 1 µM) greater than 1000 nM. For the same compound, the IC50 (second compound 3.16 µM) was greater than 1000 nM, the IC50 (second compound 10 µM) was greater than 1000 nM and the viability, T/C [1] was 96.1%. For the same compound, the viability, T/C [2] was 91.9%, the viability, T/C [3] was 88% and the viability, T/C [4] was 76.1%. It also gave a viability, T/C [21] of 77.8%, a viability, T/C [22] of 66.7% and a viability, T/C [5] of 83.7%. It also gave a viability, T/C [6] of 97.2%, a viability, T/C [7] of 86.2% and a viability, T/C [8] of 78.2%. The viability, T/C [23] was 76%, the viability, T/C [24] was 66.9% and the viability, T/C [9] was 88.3%. For the same compound, the viability, T/C [10] was 87%, the viability, T/C [11] was 88.4% and the viability, T/C [12] was 75.1%. It also gave a viability, T/C [25] of 75.4%, a viability, T/C [26] of 67% and a viability, T/C [13] of 79.7%. The viability, T/C [14] was 85.7%, the viability, T/C [15] was 84% and the viability, T/C [16] was 70.7%. The viability, T/C [27] was 67.1%, the viability, T/C [28] was 59.2% and the viability, T/C [17] was 62%. The viability, T/C [18] was 67.1%, the viability, T/C [19] was 67% and the viability, T/C [20] was 55.8%. The viability, T/C [29] was 52.8% and the viability, T/C [30] was 53.6%.
